Source: US20260078103A1, “ISOQUINOLONES AS PI3K INHIBITORS” (OnKure, Inc., priority 2022, published 2026)
Read-outs that look alike come from different tables or passages of the source.

Columns and labels:
Type in all cases: cell-based
[1] = tested on: T47D cells expressing mutant PI3Ka (H1047R); assay: In vitro cell proliferation, T47D cells (CellTiter-Glo); details: inhibition of proliferation, read-out: Avg T-47D EC50
How it was run: (§1)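 Proliferation was read by CellTiter-Glo luminescence after 72 h of exposure to 10-point compound dilutions at 37 °C and 5% CO2. T47D (RPMI, 10% FBS, insulin 0.2 units/mL) and SKBR3 (McCoys 5a, 10% FBS) cells were seeded at 1,500 cells/well. EC50 was fitted from inhibition relative to DMSO and 10 uM Alpelisib.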

[2] = tested on: SKBR3 cells express WT PI3Ka; assay: In vitro cell proliferation, SKBR3 cells (CellTiter-Glo); details: inhibition of proliferation
How it was run: as §1

[3] = tested on: phosphorylation of AKT (pAKT) in T47D cells expressing mutant PI3Ka (H1047R); assay: In vitro cell pAKT (Ser473) HTRF, T47D cells; details: cellular pAKT, T47D cells, mutant PI3Ka (H1047R), 6 hours, read-out: Avg T-47D IC50
How it was run: (§2)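 pAKT (Ser473) was quantified by HTRF in lysates from cells exposed 6 h at 37 °C to 10-point compound series, with T47D in insulin-supplemented RPMI/10% FBS and SKBR3 in McCoy's 5a/10% FBS. Controls: 0.1% DMSO (high) and 10 uM alpelisib (low). IC50 from sigmoidal curve fitting.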

[4] = tested on: phosphorylation of AKT (pAKT) in SKBR3 cells express WT PI3Ka; assay: In vitro cell pAKT (Ser473) HTRF, SKBR3 cells; details: cellular pAKT
How it was run: as §2

Compound	EC50 ([1]; Homo sapiens, T47D, 72 h)	EC50 ([2]; Homo sapiens, SK-BR-3, 72 h)	IC50 ([3]; Homo sapiens, T47D, 6 h)	IC50 ([4]; Homo sapiens, SK-BR-3, 6 h)	EC50 ([1]; 72 hours)	EC50 ([2]; 72 hours)	IC50 [3]	IC50 ([4]; 6 hours)
COc1cccc(N[C@H](C)c2cc(C)cc3c(=O)n(C)c(N4CCN(CC(F)(F)F)CC4)cc23)c1C(=O)O [Example 300]	500 to 2000 nM	> 15 µM	500 to 2000 nM	> 15 µM	–	–	–	–
Cc1cc([C@@H](C)Nc2ccccc2C(=O)O)c2cc(C3C[C@H]3C3CC3)n(C)c(=O)c2c1 (stereo partly shown) [Example 303]	1 to 500 nM	> 15 µM	1 to 500 nM	> 15 µM	–	–	–	–
COC[C@@H]1CC1c1cc2c([C@@H](C)Nc3ccccc3C(=O)O)cc(C)cc2c(=O)n1C (stereo partly shown) [Example 304]	1 to 500 nM	> 15 µM	1 to 500 nM	> 15 µM	–	–	–	–
Cc1cc([C@@H](C)Nc2ccccc2C(=O)O)c2cc(C3C[C@H]3C)n(C)c(=O)c2c1 (stereo partly shown) [Example 305]	1 to 500 nM	> 15 µM	1 to 500 nM	> 15 µM	–	–	–	–
Cc1cc([C@@H](C)Nc2ccccc2C(=O)O)c2cc(C3C[C@H]3C(C)C)n(C)c(=O)c2c1 (stereo partly shown) [Example 306]	1 to 500 nM	> 15 µM	1 to 500 nM	> 15 µM	–	–	–	–
Cc1cc([C@@H](C)Nc2ccccc2C(=O)O)c2cc(-c3cnc(C4CC4)nc3)n(C)c(=O)c2c1 [Example 307]	1 to 500 nM	> 15 µM	1 to 500 nM	> 15 µM	–	–	–	–
C[C@@H](Nc1ccccc1C(=O)O)c1cc(F)cc2c(=O)n(C)c(N3CCN(CC(F)(F)F)CC3)cc12 [Example 316]	1 to 500 nM	> 15 µM	1 to 500 nM	> 15 µM	–	–	–	–
Cc1cc([C@@H](C)Nc2ccccc2C(=O)O)c2cc(-c3cnc(C(C)(F)F)nc3)n(C)c(=O)c2c1 [Example 317]	1 to 500 nM	> 15 µM	1 to 500 nM	> 15 µM	–	–	–	–
Cc1cc([C@@H](C)Nc2cccc(F)c2C(=O)O)c2cc(-c3cnc(C(C)C)nc3)n(C)c(=O)c2c1 [Example 319]	1 to 500 nM	> 15 µM	1 to 500 nM	> 15 µM	–	–	–	–
Cc1cc([C@@H](C)Nc2cccc(F)c2C(=O)O)c2cc(C3CC3)n(C)c(=O)c2c1 [Example 320]	1 to 500 nM	> 15 µM	1 to 500 nM	> 15 µM	–	–	–	–
Cc1cc([C@@H](C)Nc2ccccc2C(=O)O)c2cc(C34CC(c5ccc(F)cc5)(C3)C4)n(C)c(=O)c2c1 [Example 321]	–	–	–	–	1 to 500 nM	> 15 µM	1 to 500 nM	2 to 15 µM
Cc1ncc(F)cc1-c1ncc(-c2cc3c([C@@H](C)Nc4ccccc4C(=O)O)cc(F)cc3c(=O)n2C)cc1F [Example 323]	1 to 500 nM	2 to 15 µM	1 to 500 nM	2 to 15 µM	–	–	–	–
C[C@@H](Nc1ccccc1C(=O)O)c1cc(F)cc2c(=O)n(C)c(-c3cnc(-c4ccc(F)cc4)nc3)cc12 [Example 324]	–	–	–	–	1 to 500 nM	2 to 15 µM	1 to 500 nM	> 15 µM
Cc1cc([C@@H](C)Nc2cccc(F)c2C(=O)O)c2cc(N3CCN(c4cncnc4C)CC3)n(C)c(=O)c2c1 [Example 325]	–	–	–	–	1 to 500 nM	2 to 15 µM	500 to 2000 nM	2 to 15 µM
Cc1cc([C@@H](C)Nc2cccc(F)c2C(=O)O)c2cc(-c3ccc(C(C)(C)F)nc3)n(C)c(=O)c2c1 [Example 326]	1 to 500 nM	> 15 µM	1 to 500 nM	> 15 µM	–	–	–	–
Cc1cc([C@@H](C)Nc2ccc(Cl)c(F)c2C(=O)O)c2cc(N3CCN(CC(F)(F)F)CC3)n(C)c(=O)c2c1 [Example 327]	–	–	–	–	500 to 2000 nM	> 15 µM	500 to 2000 nM	2 to 15 µM
